Here are results for seven molecules from publication PMC3889466 (Journal of medicinal chemistry, 2013).

Assay [1] deals with T1, A/M2 S31N (Influenza A virus, UniProt P0DOF5, S31N). To be noted: conductance assay in M2-expressing oocytes; cited from earlier work.
A further assay deals with A/M2 V27A (Influenza A virus, UniProt P0DOF5, V27A). Conditions: cited from earlier work.
Assay [2] addresses T1, A/M2 S31N. Format: cell-based, influenza A/Udorn/72. To be noted: pH 5.5.

Turning to `CC12CC3CC1(C)CC3(CN)C2` [Compound 7], the “Activity against the S31N mutant form of A/M2 (in words)” value on A/M2 S31N [1] was “inactive”. For the same molecule, the “Activity against the V27A mutant form of A/M2 (in words)” value (“Activity against the V27A mutant form” below) at A/M2 V27A is “inactive”. With `NCC12C3CCC4C3C3C(CCC31)C42` [Compound 9], the “Activity against the V27A mutant form” value on A/M2 V27A is recorded as “did not show any activity”. Turning to `C1C2C1C1C3C4C5C6CC6C4C14CNCC54C23` (stereo not drawn) [Compound 11], at A/M2 V27A, the “Activity against the V27A mutant form” value is given as “marginal activity”. As for `CC12CC3CC1(C)CC3(N)C2` [Compound 6], the “Activity against the S31N mutant form of A/M2 (in words)” value on A/M2 S31N [1] was “inactive”. Further, the “Activity against the V27A mutant form” value on A/M2 V27A is “inactive”. Consider `CC12CC34CNCC3(C1)CC2(C)C4.Cl` [Compound 14a, 7,8-Dimethyl-3-azatetracyclo[5.2.1.1^5,8.0^1,5]undecane hydrochloride], for which the “A/M2 S31N Inhibition by 100 μM for 2 min (%)” value on A/M2 S31N [2] is 0%.

Turning to `NC12C3CCC4C3C3C(CCC31)C42` [Compound 8], the “Activity against the V27A mutant form” value on A/M2 V27A is “did not show any activity”.

Regarding `C1=CC2C3C4C5C=CC4C24CNCC54C13` [Compound 10], the “Activity against the V27A mutant form” value on A/M2 V27A was “marginal activity”.
